PubChem BioAssay (NCI)
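Five compound concentrations were applied to cells in 96-well plates for 48 hours; endpoints were derived by simple linear interpolation of the resulting dose-response curve. TGI: concentration producing complete growth inhibition.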

What was measured:
Test in all cases: NCI anticancer screen, dose series, 48 h
[1] = test system: A549 NSCLC
[2] = test system: RPMI-8226 leukemia
[3] = test system: LOX IMVI melanoma
[4] = test system: DMS 114 small cell lung
[5] = test system: HCC-2998 colon
[6] = test system: HOP-92 NSCLC
[7] = test system: EKVX NSCLC
[8] = test system: U251 CNS
[9] = test system: OVCAR-3 ovarian
[10] = test system: UO-31 renal
[11] = test system: IGROV1 ovarian
[12] = test system: ACHN renal
[13] = test system: SN12C renal
[14] = test system: SNB-75 CNS
[15] = test system: MOLT-4 leukemia
[16] = test system: SF-539 CNS
[17] = test system: DLD-1 colon
[18] = test system: NCI-H460 lung
[19] = test system: OVCAR-4 ovarian
[20] = test system: M14 melanoma
[21] = test system: UACC-62 melanoma
[22] = test system: SF-295 CNS
[23] = test system: 786-0 renal
[24] = test system: RXF 393 renal
[25] = test system: NCI-H522 lung
[26] = test system: HOP-18 NSCLC
[27] = test system: HCT-15 colon
[28] = test system: OVCAR-8 ovarian
[29] = test system: SK-OV-3 ovarian
[30] = test system: MALME-3M melanoma
[31] = test system: HOP-62 NSCLC
[32] = test system: M19-MEL melanoma
[33] = test system: OVCAR-5 ovarian
[34] = test system: COLO 205 colon
[35] = test system: HCT-116 colon
[36] = test system: SK-MEL-28 melanoma
[37] = test system: LXFL 529 NSCLC
[38] = test system: CCRF-CEM leukemia
[39] = test system: NCI-H23 lung
[40] = test system: SNB-19 CNS
[41] = test system: DMS 273 small cell lung
[42] = test system: SR leukemia
[43] = test system: SNB-78 CNS
[44] = test system: SW-620 colon
[45] = test system: SK-MEL-5 melanoma
[46] = test system: K-562 leukemia
[47] = test system: TK-10 renal
[48] = test system: NCI-H226 lung
[49] = test system: KM12 colon
[50] = test system: SF-268 CNS
[51] = test system: HT29 colon
[52] = test system: HL-60(TB) leukemia
[53] = test system: KM20L2 colon
[54] = test system: CAKI-1 renal
[55] = test system: UACC-257 melanoma

Measured: TGI

O=C(O)c1cc2c(cn1)[nH]c1ccccc12
> 100 µM: all assays above
